What was measured:
[1] = tested on: target polynucleotide 5'-[…]-3' (pol and nef genes of HIV); test: Melting temperature of oligonucleotide clamp/target polynucleotide complex (260 nm absorption v. temperature curve); type: binding; details: half maximum of the 260 nm absorption v. temperature curve
Experimental: Preferably, stability of oligonucleotide clamp/target polynucleotide complexes are determined by way of melting, or strand dissociation, curves. The temperature of fifty percent strand dissociation is taken as the melting temperature, Tm, which, in turn, provides a convenient measure of stability. Tm measurements are typically carried out in a saline solution at neutral pH with target and clamp concentrations at between about 1.0-2.0 μM. Typical conditions are as follows: 150 mM NaCl and 10 mM MgCl2 in a 10 mM sodium phosphate buffer (pH 7.0) or in a 10 mM Tris-HCl buffer (pH 7.0); or like conditions. Data for melting curves are accumulated by heating a sample of the oligonucleotide clamp/target polynucleotide complex from room temperature to about 85°-90° C. As the temperature of the sample increases, absorbance of 260 nm light is monitored at 1° C. intervals, e.g. using a Cary (Australia) model 1E or a Hewlett-Packard (Palo Alto, Calif.) model HP 8459 UV/VIS spectrophotometer and model HP 89100A temperature controller, or like instruments.
The oligonucleotides and oligonucleotide clamps listed in the Table I below were synthesized in accordance with Example 1 for specific binding to the following single stranded or double stranded target polynucleotides:
The melting temperature of the following compounds were determined by computing the half maximum of the 260 nm absorption v. temperature curve, as described above: DL015:39.0° C.; DL014: 58° C.; DL013: 68.0° C.; DL021: 67.5° C.; DL022: 67.5° C.; and control (two unconnected oligonucleotides without binding moieties having sequences: 3'-TTTTCTTTTCCCCCCT-5' and 5'-TTTTC^Me TTTT(C^Me)6-3'): 32.0° C.

[2] = tested on: HIV (infected ATH8 cells); test: ATH8 cell assay: inhibition of the cytopathic (lytic) effects of HIV infection on ATH8 cells; type: cell-based; details: 2 μM and 8 μM
Experimental: (§1) Each of the compounds of Table I were tested in an ATH8 cell assay to assess the inhibition of the cytopathic effects of HIV infection on the ATH8 cells. The ATH8 assay is described in the following reference: Matsukura, pages 285-304 in Antisense RNA and DNA (Wiley-Liss, New York, 1992).
(§2) The cytopathic effect examined in the assay was the lytic effect of HIV and/or drug on the ATH8 cells. A measure of the degree of viral activity is the degree to which cells are lysed at the end of a given time period in culture. Protection against lysis is measured by the size of pellet formed after cells are harvested from culture and centrifuged, as described in the references cited above.
(§3) Curves 1 and 2 illustrate results from positive and negative controls, i.e. curve 1 illustrates the results for uninfected ATH8 cells without drug (negative control) and curve 2 illustrates the results for infected ATH8 cells without drug (positive control). Curves 3 and 4 illustrate results from cultures containing 8 μM of oligonucleotide clamp in infected and uninfected ATH8 cells, respectively. Curves 5 and 6 illustrate results from cultures containing 2 μM of oligonucleotide clamp in infected and uninfected ATH8 cells, respectively.

ATH8 cells = test: Toxicity to ATH8 cells in the ATH8 cell assay; type: cell-based; details: 2 μM and 8 μM
Experimental: as §1, §2, §3

| Substance | melting temperature [1] [°C] | change in pellet size versus time (FIG. 3), effect in words [2] | toxicity (FIG. 3), in words (ATH8 cells) |
| --- | --- | --- | --- |
| 5'-Chol-CACTTTTCTTTTCCCCCCTCACACACTCCCCCCTTTTCTTTTAC-Chol [DL022] | 67.5 | – | – |
| 5'-Chol-TTTTCTTTTCACACTTTTCTTTTGGGGGGTCACACTCCCCCC-Chol [DL021] | 67.5 | – | – |
| 5'-Chol-CACTTTTCTTTTGGGGGGTCACACTCCCCCCTTTTCTTTTAC-Chol [DL013] | 68.0 | – | – |
| 5'-CACTTTTCTTTTGGGGGGTCACACTCCCCCCTTTTCTTTTAC (chemistry not given here) [DL015] | 39.0 | – | – |
| 5'-CACTTTTCTTTTGGGGGGTCACACTCCCCCCTTTTCTTTTAC-Chol [DL014] | 58 | clear and positive effect at both concentrations | without toxicity |
